Assay results as given in patent US20080242594A1, “Methods for Promoting Stem Cell Proliferation and Survival” (priority 2005, published 2008).

Legend:
[1] = tested on: STAT3; assay: STAT3 phosphorylation (Ser727, Tyr705) immunoblot in CNS stem cells; format: cell-based, mouse
Description: Ligands that activate JAK/STAT signaling promote astrocytic differentiation of CNS stem cells (Johe et al., Genes Dev 10:3129-40, 1996; Raj an et al., J Neurosci 18:3620-9, 1998; Bonni et al., Science 278:477-83, 1997; Song et al., Nat Neurosci 7:229-35, 2004; He et al., Nat Neurosci 8:616-625, 2005). When applying CNTF to CNS stem cells it was noted that low concentrations of CNTF stimulated survival but not expression of astrocyte specific genes. This is consistent with previous observations of Akt phosphorylation downstream of gp130 activation (Taga et al., Annu Rev Immunol 15:797-819, 1997). […] At high concentrations (20 ng/ml) the phosphorylation of Tyr705 can be blocked by an inhibitor of JAK while allowing a CNTF-induced increase in Ser727 phosphorylation (FIG. 2B) (Thompson et al., Bioorg Med Chem Lett 12:1219-23, 2002).
CNTF was used as a positive control; CNTF, induced the phosphorylation on both sites. With both CNTF and Notch activation, phosphorylation peaked at around 30 min. STAT3 phosphorylation on Ser727 following Notch activation was sensitive to the γ-secretase inhibitor DAPT (FIG. 2e). […] In contrast to CNTF, no Tyr705 phosphorylation was detected at any of the doses of Notch receptor ligands.
It was determined that insulin also maintains phosphorylation of serine 727 in STAT3 in foetal neural stem cell cultures.

[2] = tested on: Notch1; assay: Notch activation (Notch1IC / Notch ICD) immunocytochemical detection; format: cell-based, mouse
Description: Antibodies were used that specifically bind: Notch1IC (Chemicon, 5352), GFP (Molecular Probes, A11122), Oct3/4 (Santa Cruz, sc-5279), SSEA1 and SSEA4 (Developmental Studies HybridomaBank), Tra-1-60 (Chemicon, MAB4360), Tra-1-81 (Chemicon, MAB4381), human nestin (Chemicon, MAB5326), Sox-1 (Gift from Dr. R Lovell-Badge), TH (Pel-Freez, P40101-0), Tuj1 (Covance, MMS-435P), rat nestin (McKay Lab), GFAP (Dako, z0334), CNPase (Chemicon, MAB326), BrdU (Accurate, H5903), DCX (Santa Cruz, sc-8066), Sox2 (R&D, MAB2018), Hu (Molecular Probes, A21271).
To assay for Notch activation, cultures were treated with the Notch ligands for 1 hour and Notch1 activation was detected by immunocytochemical staining of Notch1IC (FIG. 1b).
(§1) It was determined that insulin facilitates Notch cleavage using immunocytochemical detection.

[3] = tested on: IGF1/insulin receptor; assay: IGF1/insulin receptor phosphorylation in foetal NSC cultures; format: cell-based, mouse
Description: Specifically, D114 induced the phosphorylation of IGF1/insulin receptor. Peak phosphorylation occurred at 2-5 minutes.
as §1

[4] = tested on: mouse fetal central nervous system stem cell cultures; assay: Survival of fetal CNS stem cell cultures with insulin and Dll4; format: cell-based
Description: (§2) As there was a tight correlation between the Notch survival pathway and Hes3, it was investigated as to whether Hes3 is a mediator of the Notch pro-survival signalling. It was determined that both insulin and Notch activation promote the survival of foetal and adult neural stem cell cultures and their effects are additive (Tables 8-9).

[5] = tested on: rat adult subventricular zone central nervous system stem cell cultures; assay: Survival of adult SVZ CNS stem cell cultures with insulin and Dll4; format: cell-based
Description: as §2

[6] = tested on: adult rat subventricular zone (SVZ); assay: Dividing (BrdU+) cells in SVZ after single lateral ventricle injection; format: in vivo; details: BrdU for 3 days, sacrificed on the 5th day
Description: In vivo, Notch and insulin also increase the number of dividing cells in the adult rat subventricular zone (SVZ) 5 days after a single injection It was determined that Notch and insulin co-operate to promote new (BrdU+) cells in vivo. Specifically, the reagents infused in the lateral ventricle of adult rats as a single injection. The rats were then given BrdU for 3 days and sacrificed on the 5th day (Table 10).

[7] = tested on: E13.5 cortical embryonic mouse CNS stem cells; assay: CNS stem cell plating efficiency / colony formation / survival; format: cell-based; details: 5 days, versus FGF2 control; CNTF low 0.01, 0.1 ng/ml or high 20 ng/ml with JAK inhibitor
Description: Cell culture: E13.5 cortical embryonic mouse and adult rat subventricular zone CNS stem cells were grown as previously described (Johe et al., Genes Dev 10:3129-40, 1996; Rajan et al., J Neurosci 18:3620-9, 1998). Cells were expanded in serum-free DMEM/F12 medium with N2 supplement with FGF2 (20 ng/ml) for 5 days and were re-plated at 1000-10,000 cells per cm^2. FGF2 was included throughout our experiments, unless otherwise stated.
To explore these paradoxical observations, CNS stem cell cultures from mid-gestation (embryonic day 13.5) mouse dorsal telencephalon were treated with soluble Notch ligands. […] Following initial passaging, the cells were plated at a density of 1000 cells/cm^2, cultured for 5 days in the presence of FGF2, and colony numbers, sizes, and BrdU incorporation (after a 4 hour BrdU pulse) were enumerated. Notch activation by Jagged-1 or Delta-4 (200 ng/ml) increased the number of colonies generated in vitro by over 3-fold (FIG. 1a). […] The effects of Notch activation were most dramatic when treatments were initiated at the start of the culture.
Insulin in the medium is also thought to promote cell survival. […] Seeding cells in the absence of insulin caused the plating efficiency measured at five days to drop to 29.9%±37.9 (FIG. 1e). Delta-4 was able to compensate for the lack of insulin in the medium, and restored plating efficiency (125%±19.4). Because Notch activation improved survival, activation of Akt, a ser/threonine kinase known to be involved in cell survival, was assayed. Notch activation rapidly (5 minutes) promoted the phosphorylation of Akt on Ser473 and […] in both the presence and absence of insulin (FIG. 1f).

[8] = tested on: HSF6 hES cells; assay: hES single cell plating efficiency, HSF-6; format: cell-based, human; details: one week treatment
Description: The human ES cell lines HSF-6 (University of California, San Francisco; NIH # UC06, Passage 38-120) and H1 and H9 (WiCell Research Institute, NIH # WA01 and […]) were maintained on mouse embryonic fibroblasts (MEF) according to the suppliers' protocols. Immunocytochemistry and FACS analysis for the expression of Oct4 and SSEA4 and SKY karyotyping established that the starting cells are undifferentiated and have a normal set of chromosomes. For single cell survival experiments, hES colonies were harvested after treatment with 1.5 mg/ml collagenase type IV (Invitrogen), separated from the MEF feeder cells by repeated washing by gravity, gently triturated to break up colonies into small aggregates, further dissociated into a single cell solution by trypsination (0.05% trypsin/0.04% EDTA) and transferred on MEF feeder cells at a density of 10000 cells/ml. Oct-4 positive colonies were counted six days after plating. […]
The pro-survival effects of activation of Notch and inhibition of JAK was tested on HSF-6 (NIH code UC06, http://escell.ucsf.edu), H1 (NIH code WA01, www.wicell.org) and H9 (NIH code WA09, www.wicell.org) hES cells. Singly dissociated hES cells were plated on mouse embryo fibroblasts (MEFs), treated daily for one week and colony numbers counted. […]

[9] = tested on: mES (D3) cells; assay: mES cell plating efficiency, Oct4 and STAT3 phosphorylation in the presence of LIF; format: cell-based, mouse
Description: FIGS. 10a-10c are a set of images showing JAK inhibition reduces the phosphorylation of STAT3 on Ser727 in mES cell cultures. […] Very low levels of phosphorylated p38 were detectable under all conditions. […] Self-renewal of mES cells correlated with Ser727 phosphorylation.
mES (D3) cells were obtained from ATCC and were maintained in feeder-free cultures on gelatin-coated plates supplemented with 1400 units/ml LIF.
There is great interest in conditions that support the growth of mouse and human ES cells. In contrast to CNS SC (FIG. 2, FIG. 3) and hES SC (se below), the growth of undifferentiated mouse ES cells depends on the stimulation of the JAK/STAT pathway and STAT3 phosphorylation on Tyr705 has been specifically shown to be essential for self-renewal of mouse ES cells (Niwa et al., Genes Dev 12:2048-60, 1998; Matsuda et al., Embo J 18:4261-9, 1999). Ligands that stimulate the JAK/STAT pathway cause human ES cells to differentiate (Daheron et al., Stem Cells 22:770-8, 2004; Humphrey et al., Stem Cells 22:522-30, 2004). It was determined if the Notch/sSTAT survival pathway is present in mouse or human ES cells.

[10] = tested on: p38, SMAD1/5/8, MSK-1, STAT3 phosphorylation in hES cells; assay: Signalling immunoblots in hES cells
Description: Immunoblotting: Immunoblotting was performed as previously described (Panchision et al., Genes Dev 15:2094-110, 2001). The following antibodies were used in the experiments described below: pSer473-Akt (92715), pSer308-Akt (9275), pSer2448-mTOR (29715), pThr180/Tyr182-p38 (9211), pSMAD1/5/8 (9511) from Cell Signaling; STAT3 (482), pSer727-STAT3 (8001-R), pTyr705-STAT3 (7993) from Santa Cruz; Sonic Hedgehog (R&D, AF464), nucleostemin (McKay Lab), Hes3 (Chemicon, AB5706), α-tubulin (Sigma, T-6074).
To determine whether in the hES system JAK inhibition reduced p38 activity, cells were treated in the absence of MEF with JAK inhibitor for different times and assayed for p38 phosphorylation.

[11] = Insulin withdrawal, 2 days and then treat for 1 h

Compound | STAT3-S727 ([1]; +Ins, 2 days) | STAT3-Y705 ([1]; +Ins, 2 days) | STAT3-S727 ([1]; −Ins, 2 days→ +Ins, 1 hour) | STAT3-Y705 ([1]; −Ins, 2 days→ +Ins, 1 hour) | Notch ICD ([2]; +Ins, no withdrawal) | Notch ICD [2, 11] | pIGF1 (19H7) ([3]; +Ins, no withdrawal) | pIGF1 (3021) ([3]; +Ins, no withdrawal) | pIGF1 (19H7) [3, 11] | pIGF1 (3021) [3, 11] | Cell # [4] | Cell # [5] | Cell # [6] | CNS stem cell survival / plating efficiency [7] | human ES cell survival [8] | Oct4 expression ([9]; five day treatments in the presence of LIF) | cell survival in a plating efficiency assay ([9]; in the presence of LIF) | STAT3 phosphorylation on Ser727 [10] | phosphorylation of MSK-1 kinase [10] | phosphorylation of SMAD 1/5/8 [10]
Ins: insulin in the culture medium or infused | High | No signal | High | No signal | High | High | High | High | High | High | Medium | Medium | Medium | – | – | – | – | – | – | –
C[S+]([O-])c1ccc(-c2nc(-c3ccc(F)cc3)c(-c3ccncc3)[nH]2)cc1 (centres unmarked) [p38 inhibitor, 4-(4-Fluorophenyl)-2-(4-methylsulfinylphenyl)-5-(4-pyridyl)1H-imidazole] | – | – | – | – | – | – | – | – | – | – | – | – | – | enhanced survival to a similar extent to the JAK inhibitor | stimulated human ES cell survival | did not affect Oct4 expression | did not significantly alter cell survival | stimulated STAT3 phosphorylation on Ser727 | reduced the phosphorylation of MSK-1 kinase | reduced in a time-dependent manner
